Measured values reported in EP2135864A1, “5-(4-methanesulfonyl-phenyl)-thiazole derivatives for the treatment of acute and chronic inflammatory diseases” (FAES FARMA, S.A., priority 2008, dated 2009).

What was measured:
Assay type in all cases: cell-based, human
IL-8 = IL-8 production by PBMC from healthy volunteers, CBA; conditions: 24 hours, mean ± standard error, n=13
Description: (§1) CBA protocol was followed according to the manufacturer's instructions. The election of microparticles was performed following the summary of Figure 1.
(§2) The acquisition on samples was performed with the BD FACS Array Bioanalyser System (FACSArray, Becton Dickinson, San José, CA, USA) and the analysis of the results was completed with the software FCAP Array (Becton Dickinson) in a PC computer.
(§3) Briefly, the experimental protocol consisted of a plate pre-washing out with Wash Buffer. After decantation, the mixture of capture microparticles was re-suspended in the vortex. Standards and samples were added in the adequate dilution. After permanent stirring incubation during 1 h, the PE detection reagent was added and incubated again during 2h at room temperature. After a washing-out, the acquisition was performed in the flow cytometer. Table 3. -Kit CBA Human Soluble Protein Multiplex Flex Set System.
The effect of compound 12 on the IL-8 production by the PBMC from healthy volunteers was further investigated, both in the presence and absence of LPS stimuli and monoclonal antibodies anti-CD3 and anti-CD28. PBMC (5 x 10^4 cells/well) from 13 healthy volunteers were cultured in duplicate in 200 µl of complete medium supplemented with the highest solvent concentration (10^-6 M), and 10^-6 M, 10^-7 M and 10^-8 M of compound 12, in the presence and absence of either LPS (10 µg/ml) or anti-CD3 (12.5 ng/ml) + anti-CD28 (1/3x10^5), during 24 hours. Culture supernatants were frozen at -20°C and IL-8 concentration was quantified by BD FACS Array Bioanalyser by using CBA Flex Set, specific to determine the IL-8 concentration, following the manufacturer instructions.

CD62L = experiment: Shedding of CD62L in lymphocytes of PBMC, flow cytometry; conditions: lymphocytes of PBMC from healthy volunteers, mean ± standard error, n=10, vehicle 112.68±13.57
Description: Direct immuno-fluorescence techniques of one colour with monoclonal antibodies phycoerythrin-labeled (PE) was used. PE is a fluorescent substance excitable with a 488 nm laser, which emits at 570 nm, and it is detectable and easily distinguishable by a flow cytometer. By using the antibody described in Table 1, a direct labelling was performed: PBMC labelling: the process consisted in a labelling using 96 well V bottom plates. In each well, 5 x 10^4 cells are located, and afterwards centrifugated at 400 xg during 5 minutes. After washing-out, cells are re-suspended and 5 µl of the corresponding monoclonal antibody are added. Cells are again re-suspended and the plate is incubated in darkness, during 20 minutes, at 4°C. Subsequently, 150 µl PBS are added and two wash-outs are performed. Finally, it is re-suspended in 150 µl PBS and collected in a cytometer tube, adding PBS up to a final volume of 0.3 ml. For the counting, a FACSCalibur flow cytometer equipped with argon laser tuned at 488 nm was used in order to induce phycoerythrin fluorescence. The equipment, apart from the fluorescence channels, also provided information about the size (FSC) and cellular complexity (SSC). […]
Table 14. -Mean fluorescence intensity of surface CD62L expression in lymphocytes. p values correspond to data with respect to the vehicle for each experimental condition.

TNF-alpha = TNF-alpha production by PBMC from healthy volunteers, Cytometric Bead Array (CBA); conditions: 24 hours, mean ± standard error, n=13
Description: as §1, §2, §3
PBMC (5 x 10^4 cells/well) from 13 healthy volunteers were cultured in duplicate in 200 µl of complete medium supplemented with the highest solvent concentration (10^-6 M), […] the absence of LPS (10µg/ml) during 24 hours. Supernatant of cultures were frozen at -20°C and quantification was carried out by BD FACS Array Bioanayliser (BD Biosciences Cat No. 340128, San Diego CA 92121) by using specific reagents for the simultaneous assay of the indicated cytokines concentration (CBA Flex Multiplex Set (BD™ Cytometric Bead Array, CBA: IL-8, IL-10, TNF-alpha and IFN-gamma Becton Dickinson Biosciences Pharmingen, San Diego CA 92121).

## Cc1nc(OC2CCCC2)c(-c2ccc(S(C)(=O)=O)cc2)s1 [compound 12, 4-cyclopentyloxy-5-(4-methylsulfonyl-phenyl)-2-methylthiazole]
IL-8; LPS (10µg/ml), 10^-6 M, vehicle 173877.36±8474.49, p 0.807
  IL-8 production by PMBC from healthy volunteers: 168467.15±9656.96 (0.807) pg/mL
IL-8; LPS (10µg/ml), 10^-7 M, vehicle 173877.36±8474.49, p 0.249
  IL-8 production by PMBC from healthy volunteers: 162075.59±10258.41 (0.249) pg/mL
IL-8; LPS (10µg/ml), 10^-8 M, vehicle 173877.36±8474.49, p 0.861
  IL-8 production by PMBC from healthy volunteers: 169609.11±9060.90 (0.861) pg/mL
IL-8; anti-CD3 (12.5 ng/ml) + anti-CD28 (1/3x10^5), 10^-6 M, vehicle 107008.56±8351.21, p 0.311
  IL-8 production by PMBC from healthy volunteers: 99779.72±20000 (0.311) pg/mL
IL-8; anti-CD3 (12.5 ng/ml) + anti-CD28 (1/3x10^5), 10^-7 M, vehicle 107008.56±8351.21, p 0.055
  IL-8 production by PMBC from healthy volunteers: 97968.61±10220.21 (0.055) pg/mL
IL-8; anti-CD3 (12.5 ng/ml) + anti-CD28 (1/3x10^5), 10^-8 M, vehicle 107008.56±8351.21, p 0.028
  IL-8 production by PMBC from healthy volunteers: 92989.29±8463.47 (0.028) pg/mL
IL-8; medium, 10^-6 M, vehicle 72814.17±10647.16, p 0.016
  IL-8 production by PMBC from healthy volunteers: 45634.31±6311.13 (0.016) pg/mL
IL-8; medium, 10^-7 M, vehicle 72814.17±10647.16, p 0.006
  IL-8 production by PMBC from healthy volunteers: 53732.66±7952.75 (0.006) pg/mL
IL-8; medium, 10^-8 M, vehicle 72814.17±10647.16, p 0.087
  IL-8 production by PMBC from healthy volunteers: 57773.60±6667.57 (0.087) pg/mL
CD62L; 10^-6 M, p 0.47 as printed
  Mean fluorescence intensity of surface CD62L expression in lymphocytes (MFI): 90.01±8.93 (0.47)
CD62L; 10^-7 M, p 0.333
  Mean fluorescence intensity of surface CD62L expression in lymphocytes (MFI): 116.90±11.02 (0.333)
TNF-alpha; LPS (10µg/ml), 10^-6 M, vehicle 923.93±160.00, p 0.002
  TNF-alpha production in PMBC from healthy volunteers: 602.12±100.00 (0.002) pg/mL
TNF-alpha; LPS (10µg/ml), 10^-7 M, vehicle 923.93±160.00, p 0.046
  TNF-alpha production in PMBC from healthy volunteers: 746.84±125.00 (0.046) pg/mL
TNF-alpha; LPS (10µg/ml), 10^-8 M, vehicle 923.93±160.00, p 0.055
  TNF-alpha production in PMBC from healthy volunteers: 738.81±100.00 (0.055) pg/mL
TNF-alpha; anti-CD3 (12.5 ng/ml) + anti-CD28 (1/3x10^5), 10^-6 M, vehicle 435.81±60.00, p 0.116
  TNF-alpha production in PMBC from healthy volunteers: 334.21±63.00 (0.116) pg/mL
TNF-alpha; anti-CD3 (12.5 ng/ml) + anti-CD28 (1/3x10^5), 10^-7 M, vehicle 435.81±60.00, p 0.753
  TNF-alpha production in PMBC from healthy volunteers: 404.11±97.00 (0.753) pg/mL
TNF-alpha; anti-CD3 (12.5 ng/ml) + anti-CD28 (1/3x10^5), 10^-8 M, vehicle 435.81±60.00, p 0.422
  TNF-alpha production in PMBC from healthy volunteers: 355.62±65.00 (0.422) pg/mL
TNF-alpha; medium, 10^-6 M, vehicle 163.84±30.00, p 0.422
  TNF-alpha production in PMBC from healthy volunteers: 148.31±50.00 (0.422) pg/mL
TNF-alpha; medium, 10^-7 M, vehicle 163.84±30.00, p 0.249
  TNF-alpha production in PMBC from healthy volunteers: 197.81±40.00 (0.249) pg/mL
TNF-alpha; medium, 10^-8 M, vehicle 163.84±30.00, p 0.65
  TNF-alpha production in PMBC from healthy volunteers: 168.49±16.00 (0.65) pg/mL
